Reference: patent US10562898B2, “Substituted benzenesulfonamides as inhibitors of alpha-4 beta-7 integrin activity” (EA PHARMA CO., LTD., priority 2016, dated 2020)

The compounds below were run against T1, T cell α4β7 integrin (Homo sapiens, UniProt P13612+P26010) (assay: Human MAdCAM-1/α4β7 integrin binding inhibitory activity evaluation test in whole human blood). Conditions: recombinant human MAdCAM-1/Fc, CD4 positive cells, flow cytometry.
T1 construct: Blood samples were obtained from healthy volunteers' blood donation; endogenous in cells; host or cells: CD4-positive T cells in whole blood of healthy human volunteers
T1 sequence (P13612 34-1032): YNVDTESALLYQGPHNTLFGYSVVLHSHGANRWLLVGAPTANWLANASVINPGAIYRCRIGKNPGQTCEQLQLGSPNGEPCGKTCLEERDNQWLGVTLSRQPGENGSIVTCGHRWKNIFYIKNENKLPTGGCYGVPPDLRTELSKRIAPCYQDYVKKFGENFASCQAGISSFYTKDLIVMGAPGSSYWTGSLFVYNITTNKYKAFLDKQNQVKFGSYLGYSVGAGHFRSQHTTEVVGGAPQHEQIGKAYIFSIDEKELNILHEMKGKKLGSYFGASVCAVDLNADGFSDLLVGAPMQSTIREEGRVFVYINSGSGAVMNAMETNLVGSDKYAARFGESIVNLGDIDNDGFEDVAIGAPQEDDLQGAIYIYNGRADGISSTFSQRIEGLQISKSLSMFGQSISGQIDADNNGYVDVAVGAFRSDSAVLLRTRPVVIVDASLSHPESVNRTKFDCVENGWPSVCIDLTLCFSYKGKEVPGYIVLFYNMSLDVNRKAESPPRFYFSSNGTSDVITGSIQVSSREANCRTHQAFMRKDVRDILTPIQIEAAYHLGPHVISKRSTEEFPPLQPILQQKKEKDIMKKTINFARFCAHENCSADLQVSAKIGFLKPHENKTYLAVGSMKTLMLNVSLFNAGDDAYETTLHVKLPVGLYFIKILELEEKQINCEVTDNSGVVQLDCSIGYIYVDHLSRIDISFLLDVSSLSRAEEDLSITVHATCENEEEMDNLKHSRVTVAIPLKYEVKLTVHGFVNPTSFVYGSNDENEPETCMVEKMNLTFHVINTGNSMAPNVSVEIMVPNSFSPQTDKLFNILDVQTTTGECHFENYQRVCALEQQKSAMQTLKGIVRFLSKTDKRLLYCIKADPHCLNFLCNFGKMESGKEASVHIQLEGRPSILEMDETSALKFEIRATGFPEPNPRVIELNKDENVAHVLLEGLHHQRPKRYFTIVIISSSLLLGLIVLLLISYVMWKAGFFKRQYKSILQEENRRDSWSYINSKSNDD
T1 sequence (P26010 20-798): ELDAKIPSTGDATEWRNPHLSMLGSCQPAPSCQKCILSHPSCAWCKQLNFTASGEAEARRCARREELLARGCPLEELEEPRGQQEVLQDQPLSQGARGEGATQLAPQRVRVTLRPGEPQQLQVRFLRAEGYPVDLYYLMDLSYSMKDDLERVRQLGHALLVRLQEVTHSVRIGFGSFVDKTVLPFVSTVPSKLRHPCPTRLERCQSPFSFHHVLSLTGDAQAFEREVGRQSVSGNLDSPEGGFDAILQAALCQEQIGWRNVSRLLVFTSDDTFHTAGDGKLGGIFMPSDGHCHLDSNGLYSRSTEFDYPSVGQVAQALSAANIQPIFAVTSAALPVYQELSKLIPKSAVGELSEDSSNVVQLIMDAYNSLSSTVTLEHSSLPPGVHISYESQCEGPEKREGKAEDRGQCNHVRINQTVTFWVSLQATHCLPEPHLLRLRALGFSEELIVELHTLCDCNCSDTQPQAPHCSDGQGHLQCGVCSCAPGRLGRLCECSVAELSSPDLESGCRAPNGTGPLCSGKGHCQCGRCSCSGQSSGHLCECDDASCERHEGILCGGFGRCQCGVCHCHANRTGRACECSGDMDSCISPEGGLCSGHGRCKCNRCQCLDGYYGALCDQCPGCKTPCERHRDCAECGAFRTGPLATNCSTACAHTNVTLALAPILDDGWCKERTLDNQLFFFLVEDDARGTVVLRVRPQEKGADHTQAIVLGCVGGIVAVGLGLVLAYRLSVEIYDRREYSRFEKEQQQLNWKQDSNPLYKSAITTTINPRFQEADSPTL
Assay type: cell-based
Procedure: Human MAdCAM-1/α4β7 Integrin Binding Inhibitory Activity Evaluation Test in Whole Human Blood
Each test substance was measured in terms of the inhibitory activity of binding of T cell α4β7 integrin and MAdCAM-1 in human whole blood. Blood samples were obtained from healthy volunteers' blood donation.
A 4 mM MnCl2 solution and each of dilutions of various test substances were added to human whole blood, followed by incubation for 10 minutes. Recombinant human MAdCAM-1/Fc (R&D Systems) at 10 μg/mL was added, and each test sample taken in a total amount of 50 μL was incubated for 30 minutes. Then, 950 μL of Lyse/Fix (BD Biosciences) was added to allow hemolysis and fixation to proceed at 37° C. for 10 minutes. After centrifugation for 5 minutes, the supernatant was removed and 600 μL of a RPMI-1640 medium supplemented with 10% inactivated fetal bovine serum (hereinafter referred to as the medium) was added, followed by centrifugation for 5 minutes, removal of the supernatant, and then washing. The test sample was washed again with the medium, and then 2.5 μg/mL Mouse Anti-MAdCAM-1 antibody (Invitrogen) was added, followed by incubation for 30 minutes or more. After the test sample was washed with the medium, 3.4 μg/mL Goat Anti-Mouse IgG H&L, FITC (Abcam) was added, followed by incubation for 30 minutes or more. After the test sample was washed with the medium, 0.15 μg/mL PE Rat Anti-Mouse CD4 (BD Pharmigen) was added, followed by incubation for 30 minutes or more. After the test sample was washed with the medium, a ratio of MAdCAM-1 positive cells to CD4 positive cells was measured by using flow cytometry.
From independent test results using different blood samples of two to three persons, a MAdCAM-1 binding inhibiting rate of each test substance at each of various concentrations was obtained under the setting in which, among wells containing no test substances, a well containing no ligand was scored at 100% inhibition and a well containing ligand was scored at 0% inhibition, and then a concentration IC50 which brought about 50% binding inhibition was calculated.

SMILES	IC50
Cc1cc(=O)n(-c2ccc(C[C@H](NC(=O)c3cc(F)c(NS(=O)(=O)c4ccc(NC(=O)C(C)(C)C)cc4)cc3F)C(=O)O)cn2)c(=O)n1C [Compound A45]	1.5 nM
Cn1ccc(=O)n(-c2ccc(C[C@H](NC(=O)c3cc(F)c(NS(=O)(=O)c4ccc(NC(=O)C(C)(C)C)cc4)cc3F)C(=O)O)cn2)c1=O [Compound A53]	2.9 nM
Cc1cn(C)c(=O)n(-c2ccc(C[C@H](NC(=O)c3cc(F)c(NS(=O)(=O)c4ccc(NC(=O)C(C)(C)C)cc4)cc3F)C(=O)O)cn2)c1=O [Compound A54]	2 nM
Cc1cn(C)c(=O)n(-c2ccc(C[C@H](NC(=O)c3cc(F)c(NS(=O)(=O)c4ccc(NC(=O)C5(C(F)(F)F)CC5)cc4)cc3F)C(=O)O)cn2)c1=O [Compound A56]	5.4 nM
Cc1cn(C)c(=O)n(-c2ccc(C[C@H](NC(=O)c3cc(F)c(NS(=O)(=O)c4ccc(NC(=O)C(C)(C)C(F)(F)F)cc4)cc3F)C(=O)O)cn2)c1=O [Compound A58]	5.1 nM
Cc1cn(C)c(=O)n(-c2ccc(C[C@H](NC(=O)c3cc(F)c(NS(=O)(=O)c4ccc(NC(=O)C(C)(C)CO)cc4)cc3F)C(=O)O)cn2)c1=O [Compound A63]	4.8 nM
Cn1cc(C(F)(F)F)c(=O)n(-c2ccc(C[C@H](NC(=O)c3cc(F)c(NS(=O)(=O)c4ccc(NC(=O)C(C)(C)C)cc4)cc3F)C(=O)O)cn2)c1=O [Compound A67]	5.7 nM
CN1CCC(=O)N(c2ccc(C[C@H](NC(=O)c3cc(F)c(NS(=O)(=O)c4ccc(NC(=O)C(C)(C)C)cc4)cc3F)C(=O)O)cn2)C1=O [Compound A75, (2S)-2-[2,5-difluoro-4-[(4-pivalamidophenyl)sulfonamide]benzamido]-3-[6-(3-methyl-2,6-dioxotetrahydropyrimidin-1(2H)-yl)pyridin-3-yl]propanoic acid]	5.6 nM
